According to the NIST ThermoML archive (doi:10.1021/je501133u):
± gives the expanded uncertainty stated by the source.

Columns and labels:
[1] = xn = mol fraction of the nth substance listed; conditions: 100 kPa, Liquid, x1 = 1; for viscosity: Falling or rolling sphere viscometry; for mass density: Vibrating tube method
[2] = 100 kPa, Liquid; for viscosity: Falling or rolling sphere viscometry; for mass density: Vibrating tube method

Row | SMILES | viscosity ([1]; 293.15 K) | mass density ([1]; 293.15 K) | viscosity ([1]; 298.15 K) | mass density ([1]; 298.15 K) | viscosity ([2]; 293.15 K) | mass density ([2]; 293.15 K) | viscosity ([2]; 298.15 K) | mass density ([2]; 298.15 K) | viscosity ([2]; 303.15 K) | mass density ([2]; 303.15 K) | viscosity ([2]; 308.15 K) | mass density ([2]; 308.15 K) | viscosity ([2]; 313.15 K) | mass density ([2]; 313.15 K) | viscosity ([2]; 318.15 K) | mass density ([2]; 318.15 K) | viscosity ([2]; 323.15 K) | mass density ([2]; 323.15 K) | viscosity ([2]; 328.15 K) | mass density ([2]; 328.15 K) | other results
1 | CCO [ethanol] + CCCCCCCO | 1.15 ± 0.02 mPa·s | 790.1 ± 0.2 kg/m3 | 1.07 ± 0.02 mPa·s | 785.9 ± 0.2 kg/m3 | – | – | – | – | – | – | – | – | – | – | – | – | – | – | – | – | viscosity ([1]; 303.15 K): 0.97 ± 0.02 mPa·s; mass density ([1]; 303.15 K): 781.6 ± 0.2 kg/m3; viscosity ([1]; 308.15 K): 0.89 ± 0.02 mPa·s; mass density ([1]; 308.15 K): 777.2 ± 0.2 kg/m3; viscosity ([1]; 313.15 K): 0.81 ± 0.02 mPa·s; mass density ([1]; 313.15 K): 772.9 ± 0.2 kg/m3; viscosity ([1]; 318.15 K): 0.76 ± 0.02 mPa·s; mass density ([1]; 318.15 K): 768.4 ± 0.2 kg/m3; viscosity ([1]; 323.15 K): 0.68 ± 0.02 mPa·s; mass density ([1]; 323.15 K): 764 ± 0.2 kg/m3; viscosity ([1]; 328.15 K): 0.63 ± 0.02 mPa·s; mass density ([1]; 328.15 K): 759.4 ± 0.2 kg/m3
2 | CCCCCCO [hexan-1-ol] | – | – | – | – | 5.35 ± 0.05 mPa·s | 818.9 ± 0.3 kg/m3 | 4.56 ± 0.04 mPa·s | 815.3 ± 0.3 kg/m3 | 3.9 ± 0.04 mPa·s | 811.7 ± 0.3 kg/m3 | 3.36 ± 0.04 mPa·s | 808.1 ± 0.3 kg/m3 | 2.91 ± 0.03 mPa·s | 804.5 ± 0.3 kg/m3 | 2.54 ± 0.03 mPa·s | 800.8 ± 0.3 kg/m3 | 2.23 ± 0.03 mPa·s | 797.1 ± 0.3 kg/m3 | 1.97 ± 0.03 mPa·s | 793.4 ± 0.3 kg/m3 | –
3 | CCO [ethanol] | – | – | – | – | 1.15 ± 0.02 mPa·s | 790.1 ± 0.2 kg/m3 | 1.07 ± 0.02 mPa·s | 785.9 ± 0.2 kg/m3 | 0.97 ± 0.02 mPa·s | 781.6 ± 0.2 kg/m3 | 0.89 ± 0.02 mPa·s | 777.2 ± 0.2 kg/m3 | 0.81 ± 0.02 mPa·s | 772.9 ± 0.2 kg/m3 | 0.76 ± 0.02 mPa·s | 768.4 ± 0.2 kg/m3 | 0.68 ± 0.02 mPa·s | 764 ± 0.2 kg/m3 | 0.63 ± 0.02 mPa·s | 759.4 ± 0.2 kg/m3 | –
4 | CCCCCCCO [heptan-1-ol] | – | – | – | – | 7.15 ± 0.07 mPa·s | 822.3 ± 0.3 kg/m3 | 6.07 ± 0.06 mPa·s | 818.8 ± 0.3 kg/m3 | 5.18 ± 0.05 mPa·s | 815.3 ± 0.3 kg/m3 | 4.44 ± 0.04 mPa·s | 811.8 ± 0.3 kg/m3 | 3.83 ± 0.04 mPa·s | 808.2 ± 0.3 kg/m3 | 3.33 ± 0.04 mPa·s | 804.6 ± 0.3 kg/m3 | 2.89 ± 0.03 mPa·s | 801 ± 0.3 kg/m3 | 2.54 ± 0.03 mPa·s | 797.4 ± 0.3 kg/m3 | –
5 | CCO [ethanol] + CCCCCCO | 1.15 ± 0.02 mPa·s | 790.1 ± 0.2 kg/m3 | 1.07 ± 0.02 mPa·s | 785.9 ± 0.2 kg/m3 | – | – | – | – | – | – | – | – | – | – | – | – | – | – | – | – | viscosity ([1]; 303.15 K): 0.97 ± 0.02 mPa·s; mass density ([1]; 303.15 K): 781.6 ± 0.2 kg/m3; viscosity ([1]; 308.15 K): 0.89 ± 0.02 mPa·s; mass density ([1]; 308.15 K): 777.2 ± 0.2 kg/m3; viscosity ([1]; 313.15 K): 0.81 ± 0.02 mPa·s; mass density ([1]; 313.15 K): 772.9 ± 0.2 kg/m3; viscosity ([1]; 318.15 K): 0.76 ± 0.02 mPa·s; mass density ([1]; 318.15 K): 768.4 ± 0.2 kg/m3; viscosity ([1]; 323.15 K): 0.68 ± 0.02 mPa·s; mass density ([1]; 323.15 K): 764 ± 0.2 kg/m3; viscosity ([1]; 328.15 K): 0.63 ± 0.02 mPa·s; mass density ([1]; 328.15 K): 759.4 ± 0.2 kg/m3
